Assay results as given in US20250360113A1, “ADMINISTRATION OF DHB TO INCREASE BENEFIT OF LOSING WEIGHT OF INTERMITTENT FASTING” (NANJING NUTRABUILDING BIO-TECH CO., LTD., priority 2023, published 2025).

Tests used:
[1] = Plasma TCHO, TG, LDL, VLDL measured with kits at end of study; format: in vivo, C57BL/6 male mice; conditions: HFD obese mice, DHB 70 mg/kg i.g. daily with or without EODF vs no DHB
Description: (§1) 50 C57BL/6 male mice aged about 8 weeks, are randomly assigned to five study groups (GA, GB1, GB2, GB3, GB4) of ten mice each (one cage, n=5 per condition). Mice were maintained in a pathogen free condition under a strict 12 h light/dark cycle (0600/1800 h) with 12-15 cycles/hour of air change. Mice were provided with access to respective feed and water ad libitum as per experimental conditions. Mice were housed under controlled laboratory conditions of temperature and humidity at 23±2° C. and 50±10% RH, respectively. Each study group consisted of ten animals, and treatment details of the individual study groups are given below: • Group A (GA, NC): Normal mice, maintained on normal diet (standard chow, 12% calories from fat; 23% calories from protein and 65% calories from carbohydrates) for 8 weeks, receiving neither EODF nor DHB treatment. • Group B1 (GB1): Obese mice, maintained on high fat diet (HFD, 60% calories from fat, 20% calories from protein, 20% calories from carbohydrate) for 8 weeks, receiving neither EODF nor DHB treatment. • Group B2 (GB2): Obese mice, maintained on HFD for 8 weeks, receiving only EODF and no DHB treatment. • Group B3 (GB3): Obese mice, maintained on HFD for 8 weeks, receiving only DHB treatment and no EODF. • Group B4 (GB4): Obese mice, maintained on HFD for 8 weeks, receiving DHB treatment and EODF combination. DHB was administered daily via intragastric injection (i.g.) according to a level of 70 mg/kg body weight. Mice not receiving DHB were given orally with ultrapure water. At the end of the study blood was collected from all test groups and a various clinical parameter: plasma total cholesterol (TCHO), triglyceride (TG), low density lipoprotein (LDL), very low-density lipoprotein (VLDL) were measured using corresponding kits according to the manufacturers' instructions.

[2] = Oral glucose tolerance test (OGTT); format: in vivo, C57BL/6 male mice; conditions: HFD obese mice
Description: as §1, with “Oral glucose tolerance test (OGTT): To measure glucose levels in blood, GTT were implemented in the mice (NC and HFD groups) after overnight by using a glucose analyzer. The glucose concentrations were measured in blood collected by venous bleeding from the tail vein immediately at 0, 15, 30, 60 and 120 min after administered glucose at 2 g/kg orally. Towards” for “At”, “final week of the study, GTT” for “study blood”, “also performed for” for “collected from”, “mice (NC” for “test groups”, “HFD groups).” for “a various clinical parameter: plasma total cholesterol (TCHO), triglyceride (TG), low density lipoprotein (LDL), very low-density lipoprotein (VLDL) were measured using corresponding kits according to the manufacturers' instructions.”

[3] = Normal-diet mice given DHB with or without EODF, tested by the same method; format: in vivo, C57BL/6 male mice; conditions: normal mice on normal diet
Description: 40 C57BL/6 male mice aged about 8 weeks, are randomly assigned to four study groups (GA1, GA2, GA3, GA4) of ten mice each (one cage, […]). Mice were maintained in a pathogen free condition under a strict 12 h light/dark cycle (0600/1800 h) with 12-15 cycles/hour of air change. Mice were provided with access to respective feed and water ad libitum as per experimental conditions. Mice were housed under controlled laboratory conditions of temperature and humidity at 23±2° C. and 50±10% RH, respectively. Each study group consisted of ten animals, and treatment details of the individual study groups are given below: • Group A1 (GA1, NC): Normal mice, maintained on normal diet (standard chow, 12% calories from fat; 23% calories from protein and 65% calories from carbohydrates) for 8 weeks, receiving neither EODF nor DHB treatment. • Group A2 (GA2): Normal mice, maintained on normal diet for 8 weeks, receiving only EODF and no DHB treatment. • Group A3 (GA3): Normal mice, maintained on normal diet for 8 weeks, receiving only DHB treatment and no EODF. • Group A4(GA4): Normal mice, maintained on normal diet for 8 weeks, receiving DHB treatment and EODF combination. Test according to the above method. […] This effect persists for as long as the test protocol is continued.

[4] = mice, including mice lacking the intestinal bacteria needed to break down BBR; cited from earlier work
[5] = DHB + EODF combination vs EODF only

Structure (SMILES): COc1ccc2c(c1OC)CN1CCc3cc4c(cc3C1=C2)OCO4 [DHB, Dihydroberberine]
- TG ([1]; FIG. 5): lower levels
- TCHO ([1]; FIG. 6): lower levels
- LDL ([1]; FIG. 7): lower levels
- VLDL ([1]; FIG. 8): lower levels
- blood glucose levels ([2]; DHB 70 mg/kg i.g. daily vs no DHB with and without EODF, FIGS. 11-14): greater reduction
- improving the glucose tolerance [2, 5]: greater effects
- reducing the blood glucose levels [2, 5]: greater effects
- glucose tolerance ([2]; glucose 2 g/kg orally, DHB vs no DHB with and without EODF): better
- effects (same tests as in obese mice) [3, 5]: greater effects
- effectiveness (same tests as in obese mice) ([3]; DHB vs no DHB with and without EODF): greater effectiveness
- absorption compared with BBR [4]: better absorbed
